The source of these data is PMC5792594, “Engineering yeast for the production of breviscapine by genomic analysis and synthetic biology approaches” (Nature Communications, 2018).

The test system of this assay is T1, EbF7GAT.
T1 construct: gene F7GAT; tag removal not mentioned
Put plainly: HPLC of glucuronide product, initial-rate kinetics. It is filed as biochemical, Erigeron breviscapus. Particulars: UDP-glucuronic acid as donor (1 mM in standard assay), 50 mM Tris-HCl pH 7.5, 37 °C.

As usually defined, the Km is the substrate concentration at which the rate is half of its maximum. In the case of `O=c1cc(-c2ccc(O)cc2)oc2cc(O)cc(O)c12` [apigenin], the Km (10 min, 0.1-20 µM apigenin) is 9.24 µM.

Regarding `O=c1cc(-c2ccc(O)cc2)oc2cc(O)c(O)c(O)c12` [scutellarein], the Km (5-300 µM scutellarein) was 70.2 µM.
